Data on twelve compounds can be found in patent US12410171B2, “Tropomyosin receptor kinase (TRK) degradation compounds and methods of use” (Cullgen (Shanghai), Inc., priority 2020, dated 2025).

In the assay the test system is KM12 cells. The assay can be described thus: KM12 cell viability (CellTiter-Glo). It counts as cell-based. The settings on record: Homo sapiens, 72 h; KM12 cell viability, 11-point 3-fold serial dilution, 3 days, CellTiter-Glo; read-out: IC50. As to the method:
KM12 or H358 cells were treated with 1000 nM CPD-053 following an 8-point 3-fold serial dilution for 3 days.
KM12 cells seeded in 96-well plates were treated with heterobifunctional compounds following a 11-point 3-fold serial dilution for 3 days.
KM12, H358, HEL, SU-DHL-1 and other cells were cultured at 37° C. with 5% CO2 in RPMI 1640 Medium supplemented with 10% fetal bovine serum. Cells were authenticated using the short tandem repeat (STR) assays. Mycoplasma test results were negative. Stable cell lines were established by lentivirus transduction, selected and maintained in medium containing 1 μg/mL puromycin (Beyotime Biotechnology).
Cells were seeded at a density of 5000 cells per well in 96-well assay plates and treated with test compounds following a 12-point 2-fold serial dilution or a 8-point 3-fold dilution, or 11-point 3-fold serial dilution. Three days later, cell viability was determined using the CellTiter-Glo assay kit (Promega) according to the manufacturer's instructions. The dose-response curves were determined and IC50 values were calculated using the GraphPad Prism software following a nonlinear regression (least squares fit) method.
For orientation: In ATP-based viability assays light output follows the ATP content of the culture.

The term IC50 denotes the point on the concentration scale where inhibition reaches its midpoint. As for `Cc1ncsc1-c1ccc(CNC(=O)[C@@H]2C[C@@H](O)CN2C(=O)[C@@H](NC(=O)CCCCC(=O)N2CCC(Nc3cccc(C(=O)Nc4cnn5ccc(N6CCC[C@@H]6c6cc(F)ccc6F)nc45)n3)CC2)C(C)(C)C)cc1` [CPD-462, N-(5-((R)-2-(2,5-difluorophenyl)pyrrolidin-1-yl)pyrrazolo[1,5-a]pyrimidin-3-yl)-6-((1-(6-(((S)-1-((2S,4R)-4-hydroxy-2-((4-(4-methylthiazol-5-yl)benzyl)carbamoyl)pyrrolidin-1-yl)-3,3-dimethyl-1-oxobutan-2-yl)amino)-6-oxohexanoyl)piperidin-4-yl)amino)picolinamide], the IC50 is over 1000 nM. Next, `Cc1ncsc1-c1ccc(CNC(=O)[C@@H]2C[C@@H](O)CN2C(=O)[C@@H](NC(=O)CCCCCCC(=O)N2CCC(Nc3cccc(C(=O)Nc4cnn5ccc(N6CCC[C@@H]6c6cc(F)ccc6F)nc45)n3)CC2)C(C)(C)C)cc1` [CPD-463, N-(5-((R)-2-(2,5-difluorophenyl)pyrrolidin-1-yl)pyrazolo[1,5-a]pyrimidin-3-yl)-6-((1-(8-(((S)-1-((2S,4R)-4-hydroxy-2-((4-(4-methylthiazol-5-yl)benzyl)carbamoyl)pyrrolidin-1-yl)-3,3-dimethyl1-oxobutan-2-yl)amino)-8-oxooctanoyl)piperidin-4-yl)amino)picolinamide]: 443 nM. Turning to `Cc1ncsc1-c1ccc(CNC(=O)[C@@H]2C[C@@H](O)CN2C(=O)[C@@H](NC(=O)CCCCCCCCC(=O)N2CCC(Nc3cccc(C(=O)Nc4cnn5ccc(N6CCC[C@@H]6c6cc(F)ccc6F)nc45)n3)CC2)C(C)(C)C)cc1` [CPD-464, N-(5-((R)-2-(2,5-difluorophenyl)pyrrolidin-1-yl)pyrazolo[1,5-a]pyrimidin-3-yl)-6-((1-(10-(((S)-1-((2S,4R)-4-hydroxy-2-((4-(4-methylthiazol-5-yl)benzyl)carbamoyl)pyrrolidin-1-yl)-3,3-dimethyl-1-oxobutan-2-yl)amino)-10-oxodecanoyl)piperidin-4-yl)amino)picolinamide], the IC50 came to 87 nM.

`Cc1ncsc1-c1ccc(CNC(=O)[C@@H]2C[C@@H](O)CN2C(=O)[C@@H](NC(=O)CCOCCC(=O)N2CCC(Nc3cccc(C(=O)Nc4cnn5ccc(N6CCC[C@@H]6c6cc(F)ccc6F)nc45)n3)CC2)C(C)(C)C)cc1` [CPD-465, N-(5-((R)-2-(2,5-difluorophenyl)pyrrolidin-1-yl)pyrazolo[1,5-a]pyrimidin-3-yl)-6-((1-(3-(3-(((S)-1-((2S,4R)-4-hydroxy-2-((4-(4-methylthiazol-5-yl)benzyl)carbamoyl)pyrrolidin-1-yl)-3,3-dimethyl-1-oxobutan-2-yl)amino)-3-oxopropoxy)propanoyl)piperidin-4-yl)amino)picolinamide]: the concentration for half-maximal inhibition (IC50) turned out to be 2020 nM.

On to `Cc1ncsc1-c1ccc(CNC(=O)[C@@H]2C[C@@H](O)CN2C(=O)[C@@H](NC(=O)CCOCCOCCC(=O)N2CCC(Nc3cccc(C(=O)Nc4cnn5ccc(N6CCC[C@@H]6c6cc(F)ccc6F)nc45)n3)CC2)C(C)(C)C)cc1` [CPD-466], for which the IC50 is 253 nM. Next, `Cc1ncsc1-c1ccc(CNC(=O)[C@@H]2C[C@@H](O)CN2C(=O)[C@@H](NC(=O)CCOCCOCCOCCC(=O)N2CCC(Nc3cccc(C(=O)Nc4cnn5ccc(N6CCC[C@@H]6c6cc(F)ccc6F)nc45)n3)CC2)C(C)(C)C)cc1` [CPD-467, N-(5-((R)-2-(2,5-difluorophenyl)pyrrolidin-1-yl)pyrazolo[1,5-a]pyrimidin-3-yl)-6-((1-((S)-15-((2S,4R)-4-hydroxy-2-((4-(4-methylthiazol-5-yl)benzyl)carbamoyl)pyrrolidine-1-carbonyl)-16,16-dimethyl-13-oxo-4,7,10-trioxa-14-azaheptadecanoyl)piperidin-4-yl)amino)picolinamide]: 343 nM. For `Cc1ncsc1-c1ccc(CNC(=O)[C@@H]2C[C@@H](O)CN2C(=O)[C@@H](NC(=O)CCOCCOCCOCCOCCC(=O)N2CCC(Nc3cccc(C(=O)Nc4cnn5ccc(N6CCC[C@@H]6c6cc(F)ccc6F)nc45)n3)CC2)C(C)(C)C)cc1` [CPD-468, N-(5-((R)-2-(2,5-difluorophenyl)pyrrolidin-1-yl)pyrazolo[1,5-a]pyrimidin-3-yl)-6-((1-((S)-18-((2S,4R)-4-hydroxy-2-((4-(4-methylthiazol-5-yl)benzyl)carbamoyl)pyrrolidine-1-carbonyl)-19,19-dimethyl-16-oxo-4,7,10,13-tetraoxa-17-azaicosanoyl)piperidin-4-yl)amino)picolinamide] the value was over 1000 nM; for `Cc1ncsc1-c1ccc(CNC(=O)[C@@H]2C[C@@H](O)CN2C(=O)[C@@H](NC(=O)CCOCCOCCOCCOCCOCCC(=O)N2CCC(Nc3cccc(C(=O)Nc4cnn5ccc(N6CCC[C@@H]6c6cc(F)ccc6F)nc45)n3)CC2)C(C)(C)C)cc1` [CPD-469, N-(5-((R)-2-(2,5-difluorophenyl)pyrrolidin-1-yl)pyrazolo[1,5-a]pyrimidin-3-yl)-6-((1-((S)-21-((2S,4R)-4-hydroxy-2-((4-(4-methylthiazol-5-yl)benzyl)carbamoyl)pyrrolidine-1-carbonyl)-22,22-dimethyl-19-oxo-4,7,10,13,16-pentaoxa-20-azatricosanoyl)piperidin-4-yl)amino)picolinamide], over 1000 nM. Next, `NC(=O)C1CCN(c2cc(CN3CCN(C(=O)CCOCCOCCNc4cccc5c4C(=O)N(C4CCC(=O)NC4=O)C5=O)CC3)ccc2NC(=O)c2coc(N3CCOCC3)n2)CC1` (stereo not drawn) [CPD-486, N-(2-(4-carbamoylpiperidin-1-yl)-4-((4-(3-(2-(2-((2-(2,6-dioxopiperidin-3-yl)-1,3-dioxoisoindolin-4-yl)amino)ethoxy)ethoxy)propanoyl)piperazin-1-yl)methyl)phenyl)-2-morpholinooxazole-4-carboxamide]: 230 nM; `NC(=O)C1CCN(c2cc(CN3CCN(C(=O)CCOCCOCCOCCOCCNc4cccc5c4C(=O)N(C4CCC(=O)NC4=O)C5=O)CC3)ccc2NC(=O)c2coc(N3CCOCC3)n2)CC1` (stereo not drawn) [CPD-488, N-(2-(4-carbamoylpiperidin-1-yl)-4-((4-(1-((2-(2,6-dioxopiperidin-3-yl)-1,3-dioxoisoindolin-4-yl)amino)-3,6,9,12-tetraoxapentadecan-15-oyl)piperazin-1-yl)methyl)phenyl)-2-morpholinooxazole-4-carboxamide]: 147 nM; `NC(=O)C1CCN(c2cc(CN3CCN(C(=O)CCOCCOCCOCCOCCOCCNc4cccc5c4C(=O)N(C4CCC(=O)NC4=O)C5=O)CC3)ccc2NC(=O)c2coc(N3CCOCC3)n2)CC1` (stereo not drawn) [CPD-489, N-(2-(4-carbamoylpiperidin-1-yl)-4-((4-(1-((2-(2,6-dioxopiperidin-3-yl)-1,3-dioxoisoindolin-4-yl)amino)-3,6,9,12,15-pentaoxaoctadecan-18-oyl)piperazin-1-yl)methyl)phenyl)-2-morpholinooxazole-4-carboxamide]: 141 nM. In the case of `Cc1ncsc1-c1ccc(CNC(=O)[C@@H]2C[C@@H](O)CN2C(=O)[C@@H](NC(=O)CCC(=O)N2CCN(Cc3ccc(NC(=O)c4coc(N5CCOCC5)n4)c(N4CCC(C(N)=O)CC4)c3)CC2)C(C)(C)C)cc1` [CPD-490, N-(2-(4-carbamoylpiperidin-1-yl)-4-((4-(4-(((S)-1-((2S,4R)-4-hydroxy-2-((4-(4-methylthiazol-5-yl)benzyl)carbamoyl)pyrrolidin-1-yl)-3,3-dimethyl-1-oxobutan-2-yl)amino)-4-oxobutanoyl)piperazin-1-yl)methyl)phenyl)-2-morpholinooxazole-4-carboxamide], the IC50 amounted to 2800 nM.
